Earlier results as cited in patent US20050026871A1 (priority 2002, published 2005).

Key:
[1] = reported in the literature; cited from earlier work
[2] = Physicians' Desk Reference, Rocaltrol Oral Solution; cited from earlier work

Compound | pH at which alendronate is best absorbed [1] | time to peak serum concentrations after ingestion [2]
NCCCC(O)(P(=O)(O)O)P(=O)(O)O [Alendronate, alendronate] | ~6 | 
C=C1/C(=C\C=C2/CCC[C@]3(C)[C@@H]([C@H](C)CCCC(C)(C)O)CC[C@@H]23)C[C@@H](O)C[C@@H]1O [calcitriol, 1α,25-dihydroxyvitamin D3] |  | three to six
